Source: US9346741B2, “Polyamine transport selective therapeutic agents with enhanced stability” (University of Central Florida Research Foundation, Inc., priority 2012, dated 2016)
Several values for one entry are separate records, joined by “and”; a condition that tells them apart may be missing. Identical values can stand only once. Like-named read-outs stand apart in the source and are kept apart here. Marks after values point to notes of the source that are not given here.

Experiments:
[1] = system: CHO cells; experiment: in vitro; type: cell-based; details: for IC50: 48 h at 37° C.; for MTD (μM) in CHO (maximum tolerated dose): hamster
From the text: (§1) CHO cells were chosen along with a mutant cell line (CHO-MG*) to comment on how the synthetic conjugates gain access to the cells.^2c-e, 6 As discussed earlier, the CHO-MG cell line is polyamine-transport deficient and represents a model for alternative modes of entry (other than PTS) including passive diffusion or use of another transporter. The CHO cell line on the other hand, represents cells with high polyamine transport activity.^7, 10c A comparison of toxicity in these two CHO cell lines allowed for a screen that would detect selective use of the polyamine transporter. This is seen where high utilization of the PTS would be very toxic to CHO cells, however, there would not be the same level of toxicity found in CHO-MG cells.^2c-e, 6 Ultimately, a CHO-MG/CHO IC50 can be determined where a high ratio would be achieved for highly PTS selective compounds.
(§2) CHO and CHO-MG cells were grown in RPMI 1640 medium supplemented with 10% fetal calf serum and 1% penicillin/streptomycin. Note: the media must contain L-proline (2 μg/mL) for proper growth of the CHO-MG cells. MALME-3M cells were grown in RPMI 1640 medium supplemented with 10% FBS and 1% penicillin/streptomycin. […] Cells in early to mid-log phase were used.
(§3) Cell growth was assayed in sterile 96-well microtiter plates (Costar 3599, Corning, N.Y., USA). CHO and CHO-MG* cells were plated at 10,000 cells/mL. MALME-3M and MALME-3 cells were plated at 5,000 cells/mL. Drug solutions (10 μL per well) of appropriate concentration were added after an overnight incubation for each CHO cell line (90 μL). 48 h MALME-3M experiments were conducted using 10% Nu-Serum IV, and 96 h MALME-3M and MALME-3 experiments were conducted using 10% FBS. After exposure to the drug for 48 h (CHO, CHO-MG*, and MALME-3M) or 96 h (MALME-3M and MALME-3), cell growth was determined by measuring formazan
(§4) formation from 3-(4,5-dimethylthiazol-2-yl)-5-(3-carboxymethoxyphenyl)-2-(4-sulphenyl)-2H-tetrazolium) inner salt (MTS) using a SynergyMx Biotek microplate reader for absorbance ([…]) measurements.^24

[2] = system: CHO-MG* cells; experiment: Cytotoxicity IC50 determination (MTS) in polyamine-transport-deficient CHO-MG* cells; type: cell-based, Chinese hamster; details: 48 h at 37° C.
From the text: as §1, §2, §3, §4

[3] = system: MALME-3M cells; experiment: Cytotoxicity IC50 determination (MTS) in MALME-3M cells; type: cell-based, human
Description: Armed with this insight, compounds 5a-8b were evaluated in the MALME-3M (melanoma) cell line and its non-cancerous counterpart MALME-3 obtained originally from the same patient. These matched cell lines provided a method to assess PTS selectivity for the cancer line (MALME-3M) over the non-cancerous cell line (MALME-3). […]
(§5) CHO and CHO-MG cells were grown in RPMI 1640 medium supplemented with 10% fetal calf serum and 1% penicillin/streptomycin. Note: the media must contain L-proline (2 μg/mL) for proper growth of the CHO-MG cells. MALME-3M cells were grown in RPMI 1640 medium supplemented with 10% FBS and 1% penicillin/streptomycin. All cells were grown at 37° C. under a humidified 5% CO2 atmosphere Aminoguanidine (1 mM) was added to the growth medium to prevent oxidation of the drugs by the enzyme (bovine serum amine oxidase) present in calf serum. Cells in early to mid-log phase were used.
as §3, §4

[4] = system: MALME-3M (melanoma) vs MALME-3 (normal) cells; experiment: MALME-3/MALME-3M IC50 ratio, a measure of selectivity; type: cell-based, human; details: 96 h; 1 mM AG
From the text: These matched cell lines provided a method to assess PTS selectivity for the cancer line (MALME-3M) over the non-cancerous cell line (MALME-3).

[5] = system: polyamine transport system (PTS), CHO-MG vs CHO cells; details: original CHO-MG line; cited from earlier work
[6] = system: polyamine transport system (PTS), CHO-MG* vs CHO cells; experiment: CHO-MG*/CHO IC50 ratio, a measure of PTS selectivity; type: cell-based, Chinese hamster; details: 48 h; for IC50 ratio w/AG (CHO-MG*/CHO): with 1 mM AG; for IC50 ratio w/o AG (CHO-MG*/CHO): without AG
From the text: Compounds with high CHO-MG/CHO IC50 ratios are considered PTS selective.
as §1

[7] = system: MALME-3 cells; experiment: Cytotoxicity IC50 determination (MTS) in MALME-3 cells; type: cell-based, human; details: 96 h at 37° C., 1 mM AG, 10% FBS
Description: Armed with this insight, compounds 5a-8b were evaluated in the MALME-3M (melanoma) cell line and its non-cancerous counterpart MALME-3 obtained originally from the same patient. These matched cell lines provided a method to assess PTS selectivity for the cancer line (MALME-3M) over the non-cancerous cell line (MALME-3).
as §5, §3, §4

[8] = system: polyamine transport system (PTS) in L1210 cells; details: cited from earlier work
[9] = system: MALME-3 cells; experiment: Spermidine rescue experiments in MALME-3 cells; type: cell-based, human; details: dosed near the IC50 value; increasing spermidine
Description: (§6) In order to validate that these drugs were toxic due to their use of the polyamine transport system, spermidine rescue experiments were conducted. Spermidine is a native polyamine and uses the PTS for cell entry. High concentrations of spermidine should outcompete the PTS-targeting drugs for cell entry. In this regard, spermidine when dosed at a non-toxic concentration should rescue the cells from the toxic effects of the PTS targeting agents. […] Both the anthryl and naphthyl systems when dosed at their IC50 concentrations gave >92% viability at 10 μM spermidine validating their use of the PTS. Rescue was observed from the initial 50% viability to >92% viability after co-dosing 10 μM spermidine.
(§7) As stated above, in an effort to determine if the cytotoxicities seen for compounds 6-8 were polyamine transport related, MALME-3M and MALME-3 were dosed near the IC50 value of each drug. These cells were also treated with increasing amounts of spermidine to see if it could outcompete compounds 6-8 for cellular entry and thus rescue the cells. […] This supports the premise that these compounds gain access to these cells primarily via the PTS. […] Since the viability of MALME-3M cells could be partially rescued by spermidine, compounds 8a and 8b may gain access via the PTS and via non-PTS related pathway(s).

[10] = system: MALME-3M cells; experiment: Spermidine rescue experiments in MALME-3M cells; type: cell-based, human; details: drug at its IC50 concentration, co-dosed 10 μM spermidine; cell line not given
Description: as §6, §7

[11] = system: 60 human cancer cell lines; experiment: NCI 60 cell-line screen; type: cell-based; details: 10 μM; 48 h
Description: Once compounds 6a-b, 7a-b, and 8a-8b were evaluated in CHO and CHO-MG*, these compounds were sent to the National Cancer institute (NCI) to conduct its 60 cell-line screen to determine if these compounds could also be potent anti-cancer agents for human cancer cell lines. […] As shown in FIGS. 2A-2C, dose response curves were generated based upon the 60 cell-line screen at different molar concentrations of each PTS targeting agent 6b, 7b, and 8b.
To generate FIGS. 2A-2C, the respective drug was dosed at 10 μM into each human cancer cell line and cell viability was assessed after a 48 h incubation at 37° C. in an environment of 5% CO2, 95% air and 100% relative humidity. A more descriptive methodology can be found at the NCI website: http://dtp.nci.nih.gov/branches/btb/ivclsp.html. Cell lines which gave bar graphs which extend to the right of the central line were more sensitive to the drug than cell lines which extended to the left of the center line.

[12] = system: 60 human cancer cell lines; experiment: NCI 60 cell-line screen; type: cell-based; details: 5-dose assay
[13] = in vitro; type: cell-based; details: Chinese hamster
From the text: as §1, §2, §3, §4

[14] = 1 mM AG 24 h prior to drug addition, read-out: CHO IC50 (μM) w/AG
[15] = without AG, read-out: CHO IC50 (μM) w/o AG
[16] = 1 mM AG 24 h prior to drug addition, read-out: CHO-MG* IC50 (μM) w/AG
[17] = without AG, read-out: CHO-MG* IC50 (μM) w/o AG
[18] = 48 h at 37° C., 1 mM AG, 10% Nu-Serum IV, read-out: MALME-3M IC50 (μM) w/ AG
[19] = 48 h at 37° C., without AG, 10% Nu-Serum IV, read-out: MALME-3M IC50 (μM) w/o AG
[20] = 96 h at 37° C., 1 mM AG, 10% FBS, read-out: MALME-3M IC50
[21] = Cricetulus griseus, CHO, Table 4, 1 mM AG 24 h prior to drug addition, read-out: CHO IC50
[22] = Cricetulus griseus, CHO-MG, Table 4, 1 mM AG 24 h prior to drug addition, read-out: CHO-MG* IC50

Row | SMILES | IC50 [1, 14] | IC50 [1, 15] | IC50 [2, 16] | IC50 [2, 17] | IC50 [3, 18] | IC50 [3, 19] | IC50 [3, 20] | MALME-3/MALME-3M IC50 ratio [4] | IC50 ratio w/AG (CHO-MG*/CHO) [6] | IC50 ratio w/o AG (CHO-MG*/CHO) [6] | IC50 [7] | rescue by exogenous spermidine in MALME-3 [9] | viability at 48 h, 0.01 μM [13] | IC50 [1, 21] | MTD (μM) in CHO (maximum tolerated dose) [1] | IC50 [2, 22] | further results
1 | Cl.NCCCCNCCCCNCc1c2ccccc2cc2ccccc12 [Compound 5a, reference compound] | 0.32 µM | 1.5 µM | 13.7 µM | 2.2 µM | 0.48 µM | 0.29 µM | 0.27 µM | 3.1 | 43 and 42.8 | 1.4 | 830 nM | – | – | – | – | – | CHO-MG/CHO IC50 ratio [5]: 150 and 148
2 | Cl.NCCCCNCCCCNCc1ccc(CNCCCCNCCCCN)cc1 [Compound 8a] | 0.027 µM | 10.3 µM | 19.6 µM | 56.5 µM | 0.01 µM | 0.4 µM | 0.005 µM | 18 | 727 | 5.5 | 90 nM | complete rescue | – | – | – | – | Ki ([8]; read-out: Ki in L1210 cells): 520 nM; Ki ([8]; unit inferred, read-out: Ki values in L1210 cells): 490 ± 20 nM
3 | CNCCCCNCCCCNCc1ccc(CNCCCCNCCCCNC)cc1 [Compound 8b, N1,N1′-(1,4-Phenylenebis(methylene))bis(N4-(4-(methylamino)butyl)butane-1,4-diamine)] | – | – | – | – | – | – | – | 2 | 1715 | 1316 | – | complete rescue | – | – | – | – | IC50 ([1]; Cricetulus griseus, CHO, 1 mM AG 24 h prior to drug addition, read-out: CHO IC50 (μM) w/AG): 0.03 µM; IC50 ([1]; Cricetulus griseus, CHO, without AG, read-out: CHO IC50 (μM) w/o AG): 0.041 µM; viability at 10 μM spermidine [10]: 75%; effect on breast cancer cell lines in the NCI 60 cell-line screen [11]: exhibited an anti-proliferation effect in breast cancer cell lines, particularly the T-47D cell line; effect on melanoma cell lines in the NCI 60 cell-line screen [11]: inhibited the proliferation of melanoma cell lines, particularly the MALME-3M cell line; IC50 ([2]; Cricetulus griseus, CHO-MG, 1 mM AG 24 h prior to drug addition, read-out: CHO-MG* IC50 (μM) w/AG): 51.5 µM; IC50 ([2]; Cricetulus griseus, CHO-MG, without AG, read-out: CHO-MG* IC50 (μM) w/o AG): 54 µM; IC50 ([3]; Homo sapiens, Malme-3M, 48 h at 37° C., 1 mM AG, 10% Nu-Serum IV, read-out: MALME-3M IC50 (μM) w/ AG): 0.007 µM; IC50 ([3]; Homo sapiens, Malme-3M, 48 h at 37° C., without AG, 10% Nu-Serum IV, read-out: MALME-3M IC50 (μM) w/o AG): 0.007 µM; IC50 ([3]; Homo sapiens, Malme-3M, 96 h at 37° C., 1 mM AG, 10% FBS, read-out: MALME-3M IC50): 0.01 µM; IC50 ([7]; Homo sapiens, MALME-3): 20 nM; NCI 5-dose assay, MALME-3M cell line [12]: dose dependent response
4 | NCCCCNCCCCNCc1cccc(CNCCCCNCCCCN)c1 [Compound 34a, N^1,N^1′-(1,3-phenylenebis(methylene))bis(N^4-(4-aminobutyl)butane-1,4-diamine)] | – | – | – | – | – | – | – | – | 1072 | – | – | – | ~90% | 0.028 µM | 0.01^f μM | 30 µM | –
5 | NCCCCNCCCCNCCCCNCc1cccc(CNCCCCNCCCCNCCCCN)c1 [Compound 34b, N^1,N^1′-(1,3-phenylenebis(methylene))bis(N^4-(4-((4-aminobutyl)amino)butyl)butane-1,4-diamine)] | – | – | – | – | – | – | – | – | 335 | – | – | – | ~90% | 0.04 µM | 0.01^g μM | 13.4 µM | –
